Source: patent US20240132431A1, “METHOD FOR ALKYLATING ACIDIC FUNCTIONAL GROUP” (Chugai Seiyaku Kabushiki Kaisha, priority 2021, published 2024)

Biological target: T1, Bcl-2 protein (Recombinant Human Bcl-2 Protein) (Homo sapiens, UniProt P10415)
T1 construct: purchased Novus NBP2-34889
Experiment: Binding evaluation of mixture library compounds to Bcl-2 using AS-MS (affinity selection mass spectrometry)
Details: for ASMS ratio (%) n = 1 / ASMS ratio (%) n = 2: ASMS Ratio(%)=(A−C)/B×100; for ASMS ratio (%) n = 1: replicate n = 1; for ASMS ratio (%) n = 2: replicate n = 2
Method in brief: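 Affinity selection MS: Bcl-2 20 μM + 1200-cpd mixture, […]/cpd, Tris pH 7.4 buffer w/ Tween-20, DTT; 1 h 23° C dark; P-2 spin SEC; MeCN/MeOH extraction; RP LC/MS. ASMS Ratio(%) = (A−C)/B×100.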

[1] = AS-MS on the mixture of 1200 library compounds
[2] = AS-MS, mixture of 1200 compounds, Bcl-2

T1 sequence (P10415 whole entry): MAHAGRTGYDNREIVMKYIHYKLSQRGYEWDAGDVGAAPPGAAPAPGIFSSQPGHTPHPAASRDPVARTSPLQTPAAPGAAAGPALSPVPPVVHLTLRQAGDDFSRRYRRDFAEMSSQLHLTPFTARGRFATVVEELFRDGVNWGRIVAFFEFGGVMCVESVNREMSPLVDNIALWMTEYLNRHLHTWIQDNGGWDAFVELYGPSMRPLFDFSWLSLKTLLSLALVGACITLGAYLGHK

In the case of CCOc1cncc(-c2ccccc2CCC(=O)N2CCN(c3ccc(C(=O)Nc4ccc(OC)cc4)nn3)CC2)c1 [B1O012-01, 6-[4-[3-[2-(5-Ethoxypyridin-3-yl)phenyl]propanoyl]piperazin-1-yl]-N-(4-methoxyphenyl)pyridazine-3-carboxamide], the “ASMS ratio (%) n = 1” value [1] is reported as 0.8% and the “ASMS ratio (%) n = 2” value [1] is reported as −0.9%.

In the case of CCOc1cccc(-c2ccc(C(=O)N3CCN(c4ccc(C(=O)NCC56CC7CC(CC(C7)C5)C6)cc4)CC3)cc2F)c1 [B1A027-01, N-(1-Adamantylmethyl)-4-[4-[4-(3-ethoxyphenyl)-3-fluorobenzoyl]piperazin-1-yl]benzamide], the “ASMS ratio (%) n = 1” value [2] is reported as 6.7% and the “ASMS ratio (%) n = 2” value [2] is reported as −7.8%.

CCOc1cccc(C#Cc2cncc(C(=O)N3CCN(c4ccc(C(=O)NS(=O)(=O)c5ccc(NCCSc6ccccc6)c(C(F)(F)F)c5)cc4)CC3)c2)c1 [B2R031-01, 4-[4-[5-[2-(3-Ethoxyphenyl)ethynyl]pyridine-3-carbonyl]piperazin-1-yl]-N-[4-(2-phenylsulfanylethylamino)-3-(trifluoromethyl)phenyl]sulfonylbenzamide] was tested, and the “ASMS ratio (%)” value (n = 1) was 0.0% and the “ASMS ratio (%)” value (n = 2) was 4.8%.

With CCOc1cccc(-c2ccc(C(=O)N3CCN(c4ccc(C(=O)NS(=O)(=O)c5ccc(NCCSc6ccccc6)c([N+](=O)[O-])c5)nn4)CC3)cc2C)c1 [B2Q003-01, 6-[4-[4-(3-Ethoxyphenyl)-3-methylbenzoyl]piperazin-1-yl]-N-[3-nitro-4-(2-phenylsulfanylethylamino)phenyl]sulfonylpyridazine-3-carboxamide] the “ASMS ratio (%) n = 1” value (AS-MS, mixture library, Bcl-2) was 8.2% and the “ASMS ratio (%) n = 2” value (AS-MS, mixture library, Bcl-2) was 6.9%.

CCOc1cncc(-c2ccc(CN3CCN(c4ccc(C(=O)Nc5ccc(OC)cc5)cc4)CC3)cc2C)c1 [B1O048-01, 4-[4-[[4-(5-Ethoxypyridin-3-yl)-3-methylphenyl]methyl]piperazin-1-yl]-N-(4-methoxyphenyl)benzamide] was tested, and the “ASMS ratio (%) n = 1” value [1] was −0.3% and the “ASMS ratio (%) n = 2” value [1] was −1.6%.

In the case of CCOc1cncc(C#Cc2ccccc2CN2CCN(c3ccc(C(=O)NS(C)(=O)=O)nn3)CC2)c1 [B2I096-01, 6-[4-[[2-[2-(5-Ethoxypyridin-3-yl)ethynyl]phenyl]methyl]piperazin-1-yl]-N-methylsulfonylpyridazine-3-carboxamide], the “ASMS ratio (%)” value (n = 1) is reported as 0.0% and the “ASMS ratio (%)” value (n = 2) is reported as 0.0%.

With CCOc1cncc(-c2cc(CN3CCN(c4ccc(C(=O)NS(=O)(=O)c5ccc(NCCSc6ccccc6)c(C(F)(F)F)c5)nn4)CC3)cc(OCC)c2)c1 [B2R082-01, 6-[4-[[3-Ethoxy-5-(5-ethoxypyridin-3-yl)phenyl]methyl]piperazin-1-yl]-N-[4-(2-phenylsulfanylethylamino)-3-(trifluoromethyl)phenyl]sulfonylpyridazine-3-carboxamide] the “ASMS ratio (%)” value (n = 1) was 0.0% and the “ASMS ratio (%)” value (n = 2) was 0.0%.

In the case of CCOc1cncc(-c2ccc(CN3CCN(c4ccc(C(=O)NS(=O)(=O)c5ccc(NCCSc6ccccc6)c(C(F)(F)F)c5)nn4)CC3)cc2F)c1 [B2R078-01, 6-[4-[[4-(5-Ethoxypyridin-3-yl)-3-fluorophenyl]methyl]piperazin-1-yl]-N-[4-(2-phenylsulfanylethylamino)-3-(trifluoromethyl)phenyl]sulfonylpyridazine-3-carboxamide], the “ASMS ratio (%)” value (n = 1) is reported as 15.8% and the “ASMS ratio (%)” value (n = 2) is reported as 11.7%.

In the case of CCOc1cccc(-c2cc(C(=O)N3CCN(c4ccc(C(=O)N(C)CC56CC7CC(CC(C7)C5)C6)nn4)CC3)cc(C(F)(F)F)c2)c1 [B3A017-01, N-(1-Adamantylmethyl)-6-[4-[3-(3-ethoxyphenyl)-5-(trifluoromethyl)benzoyl]piperazin-1-yl]-N-methylpyridazine-3-carboxamide], the “ASMS ratio (%) n = 1” value [1] is reported as 6.9% and the “ASMS ratio (%) n = 2” value [1] is reported as −6.3%.

CCOc1cccc(-c2cc(OC)c(CN3CCN(c4ccc(C(=O)NS(=O)(=O)CCC(F)(F)F)nn4)CC3)c(OC)c2)c1 [B2N085-01] was tested, and the “ASMS ratio (%)” value (n = 1) was 0.0% and the “ASMS ratio (%)” value (n = 2) was 0.0%.

With CCOc1cncc(-c2ccc(C(=O)N3CCN(c4ccc(C(=O)N(CC)CC)cc4)CC3)cc2F)c1 [B4J028-01, 4-[4-[4-(5-Ethoxypyridin-3-yl)-3-fluorobenzoyl]piperazin-1-yl]-N,N-diethylbenzamide] the “ASMS ratio (%) n = 1” value [1] was −1.0% and the “ASMS ratio (%) n = 2” value [1] was 0.9%.

With CCOc1cccc(-c2ccccc2CCC(=O)N2CCN(c3ccc(C(=O)NS(C)(=O)=O)nn3)CC2)c1 [B2I011-01, 6-[4-[3-[2-(3-Ethoxyphenyl)phenyl]propanoyl]piperazin-1-yl]-N-methylsulfonylpyridazine-3-carboxamide] the “ASMS ratio (%) n = 1” value (AS-MS, mixture library, Bcl-2) was 0.0% and the “ASMS ratio (%) n = 2” value (AS-MS, mixture library, Bcl-2) was 0.0%.

With CCOc1cccc(-c2ccc(CN3CCN(c4ccc(C(=O)NCC(F)(F)F)cc4)CC3)cc2F)c1 [B1K051-01, 4-[4-[[4-(3-Ethoxyphenyl)-3-fluorophenyl]methyl]piperazin-1-yl]-N-(2,2,2-trifluoroethyl)benzamide] the “ASMS ratio (%) n = 1” value [2] was 2.8% and the “ASMS ratio (%) n = 2” value [2] was 2.0%.

For CCOc1cncc(-c2ccc(CN3CCN(c4ccc(C(=O)NCC(F)(F)F)cc4)CC3)c(CC)c2)c1 [B1K050-01], the “ASMS ratio (%) n = 1” value [2] was 0.0% and the “ASMS ratio (%) n = 2” value [2] was 0.0%.

With CCOc1cccc(-c2csc(C(=O)N3CCN(c4ccc(C(=O)NS(=O)(=O)C(C)(C)C)cc4)CC3)c2)c1 [B2L023-01, N-tert-Butylsulfonyl-4-[4-[4-(3-ethoxyphenyl)thiophene-2-carbonyl]piperazin-1-yl]benzamide] the “ASMS ratio (%)” value (n = 1) was 0.0% and the “ASMS ratio (%)” value (n = 2) was 0.0%.

CCOc1cccc(-c2ccc(C(=O)N3CCN(c4ccc(C(=O)N(C)CC56CC7CC(CC(C7)C5)C6)cc4)CC3)cc2C)c1 [B3A025-01, N-(1-Adamantylmethyl)-4-[4-[4-(3-ethoxyphenyl)-3-methylbenzoyl]piperazin-1-yl]-N-methylbenzamide] was tested, and the “ASMS ratio (%) n = 1” value [1] was 15.7% and the “ASMS ratio (%) n = 2” value [1] was −19.6%.

In the case of CCOc1cncc(-c2ccc(C(C)N3CCN(c4ccc(C(=O)N(C)CC56CC7CC(CC(C7)C5)C6)cc4)CC3)c(F)c2)c1 (stereo not drawn) [B3A100-01, N-(1-Adamantylmethyl)-4-[4-[1-[4-(5-ethoxypyridin-3-yl)-2-fluorophenyl]ethyl]piperazin-1-yl]-N-methylbenzamide], the “ASMS ratio (%) n = 1” value [1] is reported as −39.8% and the “ASMS ratio (%) n = 2” value [1] is reported as 0.0%.

With CCOc1cccc(C#Cc2cc(C(=O)N3CCN(c4ccc(C(=O)NCC(F)(F)F)cc4)CC3)cc(C(F)(F)F)c2)c1 [B1K041-01, 4-[4-[3-[2-(3-Ethoxyphenyl)ethynyl]-5-(trifluoromethyl)benzoyl]piperazin-1-yl]-N-(2,2,2-trifluoroethyl)benzamide] the “ASMS ratio (%) n = 1” value [2] was 0.0% and the “ASMS ratio (%) n = 2” value [2] was 0.0%.

For CCOc1cccc(-c2csc(C(=O)N3CCN(c4ccc(C(=O)N(CC)CC)nn4)CC3)c2)c1 [B4J001-01, 6-[4-[4-(3-Ethoxyphenyl)thiophene-2-carbonyl]piperazin-1-yl]-N,N-diethylpyridazine-3-carboxamide], the “ASMS ratio (%) n = 1” value [1] was 0.0% and the “ASMS ratio (%) n = 2” value [1] was 0.0%.

For “4-[4-[4-(3-Ethoxyphenyl)-3-methylbenzoyl]piperazin-1-yl]-N-propylbenzamide [B1M038-01]”, the “ASMS ratio (%) n = 1” value [2] was 0.0% and the “ASMS ratio (%) n = 2” value [2] was 1.7%.

In the case of CCOc1cccc(-c2cc(CN3CCN(c4ccc(C(=O)N(C)CC56CC7CC(CC(C7)C5)C6)cc4)CC3)cc(OCC)c2)c1 [B3A055-01, N-(1-Adamantylmethyl)-4-[4-[[3-ethoxy-5-(3-ethoxyphenyl)phenyl]methyl]piperazin-1-yl]-N-methylbenzamide], the “ASMS ratio (%) n = 1” value [1] is reported as 10.8% and the “ASMS ratio (%) n = 2” value [1] is reported as −12.7%.

In the case of CCOc1cccc(-c2ccc(C(=O)N3CCN(c4ccc(C(=O)NCC56CC7CC(CC(C7)C5)C6)cc4)CC3)cc2C)c1 [B1A025-01, N-(1-Adamantylmethyl)-4-[4-[4-(3-ethoxyphenyl)-3-methylbenzoyl]piperazin-1-yl]benzamide], the “ASMS ratio (%) n = 1” value [2] is reported as 7.4% and the “ASMS ratio (%) n = 2” value [2] is reported as −16.1%.

CCOc1cncc(-c2ccc(C(C)N3CCN(c4ccc(C(=O)Nc5ccc(OC)cc5)cc4)CC3)cc2)c1 (stereo not drawn) [B1O098-01, 4-[4-[1-[4-(5-Ethoxypyridin-3-yl)phenyl]ethyl]piperazin-1-yl]-N-(4-methoxyphenyl)benzamide] was tested, and the “ASMS ratio (%) n = 1” value [1] was −42.7% and the “ASMS ratio (%) n = 2” value [1] was −0.2%.

CCOc1cccc(-c2ccc(CN3CCN(c4ccc(C(=O)NS(C)(=O)=O)cc4)CC3)c(CC)c2)c1 [B2I049-01, 4-[4-[[4-(3-Ethoxyphenyl)-2-ethylphenyl]methyl]piperazin-1-yl]-N-methylsulfonylbenzamide] was tested, and the “ASMS ratio (%)” value (n = 1) was 0.0% and the “ASMS ratio (%)” value (n = 2) was 0.0%.

For “4-[4-[3-[2-(3-Ethoxyphenyl)ethynyl]-5-(trifluoromethyl)benzoyl]piperazin-1-yl]-N-propylbenzamide [B1M014-01]”, the “ASMS ratio (%) n = 1” value [2] was 4.1% and the “ASMS ratio (%) n = 2” value [2] was 0.4%.

With CCOc1cccc(-c2ccc(CN3CCN(c4ccc(C(=O)N(C)CC56CC7CC(CC(C7)C5)C6)cc4)CC3)cc2F)c1 [B3A051-01, N-(1-Adamantylmethyl)-4-[4-[[4-(3-ethoxyphenyl)-3-fluorophenyl]methyl]piperazin-1-yl]-N-methylbenzamide] the “ASMS ratio (%) n = 1” value [1] was 21.3% and the “ASMS ratio (%) n = 2” value [1] was −4.2%.

With CCOc1cccc(C#Cc2ccccc2C(=O)N2CCN(c3ccc(C(=O)N(C)CC45CC6CC(CC(C6)C4)C5)nn3)CC2)c1 [B3A007-01, N-(1-Adamantylmethyl)-6-[4-[2-[2-(3-ethoxyphenyl)ethynyl]benzoyl]piperazin-1-yl]-N-methylpyridazine-3-carboxamide] the “ASMS ratio (%) n = 1” value [1] was 9.1% and the “ASMS ratio (%) n = 2” value [1] was −5.1%.
